# Test results: patent US6566365B1, “Method for the treatment of Flaviviridea viral infection using nucleoside analogues” (BioChem Pharma Inc., priority 1999, dated 2003)
# Key:
# [1] = target: T1, HCV RNA-dependent RNA polymerase (NS5B protein) (Hepatitis C virus genotype 1b, UniProt P26663); experiment: In vitro HCV RNA-dependent RNA polymerase assay, triphosphate form of guanosine analogues (polyC/oligoG or heteropolymeric RNA template, [32P]-GTP incorporation); format: biochemical, HCV-Bk strain; conditions: purified recombinant NS5B; for inhibition at 50 µM: @50 μM compound
# T1 construct: The cDNA encoding the entire NS5B protein of HCV-Bk strain, genotype 1b; added initiator Met (ATG introduced before the NS5B coding region) (N); made in house; host or cells: Sf9 insect cells, recombinant baculovirus BacNS5B (pBlueBacII)
# Procedure: (§1) Compounds were evaluated using an in vitro polymerase assay containing purified recombinant HCV RNA-dependent RNA polymerase (NS5B protein). HCV NS5B was expressed in insect cells using a recombinant baculovirus as vector. The experimental procedures used for the cloning, expression and purification of the HCV NS5B protein are described bellow. Follows, are details of the RNA-dependent RNA polymerase assays used to test the compounds.
# (§2) The cDNA encoding the entire NS5B protein of HCV-Bk strain, genotype 1b, was amplified by PCR using a plasmid containing a cDNA version of the full-length HCV genome as template. The oligonucleotides used to amplify this HCV region were designed to introduce a NheI site followed by an ATG at the 5′ end of the NS5B coding region as well as a BamHI site at the 3′end immediately downstream of the translation stop codon. The amplified sequence, of 1.8 kb, was digested with NheI and BamHI and ligated to a predigested pBlueBacII plasmid (Invitrogen). The resulting recombinant plasmid was designated pBac/NS5B. Sf9 cells were co-transfected with 3 μg of pBac/NS5B, together with 1 μg of linearized baculovirus DNA (Invitrogen), as described in the manufacturer's protocol. Following two rounds of plaque purification, an NS5B-recombinant baculovirus, BacNS5B, was isolated. The presence of the recombinant NS5B protein was determined by western blot analysis (Harlow and Lane, 1988) of BacNS5B-infected Sf9 cells, using a HCV NS5B specific rabbit polyclonal antiserum (anti-NS5B). Infections of Sf9 cells with this plaque purified virus were performed in one-liter spinner flasks at a cell density of 1.2×10^6 cells/ml and a multiplicity of infection of 5.
# (§3) Sf9 cells were infected as described above. Sixty hours post-infection, cells were harvested then washed twice with phosphate buffer saline (PBS). Total proteins were solubilized as described in Lohmann et al. (1997) with some modifications. In brief, proteins were extracted in three steps, S1, S2, S3, using lysis buffers (LB) I, LB II and LB III (Lohmann et al, 1997). The composition of LBII was modified to contain 0.1% triton X-100 and 150 mM NaCl to reduce the amount of solubilized NS5B protein at this step. In addition, sonication of cell extracts was avoided throughout the protocol to preserve the integrity of the protein structure.
# Soluble NS5B protein in the S3 fraction was diluted to lower the NaCl concentration to 300 mM, then it incubated batchwise with DEAE sepharose beads (Amersham-Pharmacia) for 2 hrs at 4° C., as described by Behrens et al. (1996). Unbound material was cleared by centrifugation for 15 min at 4° C., at 25000 rpm using a SW41 rotor (Beckman). […] Eluted fractions were analyzed by SDS-PAGE and western blotting. […]
# [2] = target: T1, HCV RNA-dependent RNA polymerase (NS5B protein); experiment: In vitro HCV RNA-dependent RNA polymerase assay, triphosphate form of cytosine analogues (polyrI/oligodC or heteropolymeric RNA template, [32P]-CTP incorporation); format: biochemical, HCV-Bk strain; conditions: purified recombinant NS5B; for inhibition at 50 µM: @50 μM compound; for inhibition at 100 µM: @100 μM compound
# Procedure: as §1, §2, §3
# Soluble NS5B protein in the S3 fraction was diluted to lower the NaCl concentration to 300 mM, then it incubated batchwise with DEAE sepharose beads (Amersham-Pharmacia) for 2 hrs at 4° C., as described by Behrens et al. (1996). Unbound material was cleared by centrifugation for 15 min at 4° C., at 25000 rpm using a SW41 rotor (Beckman). The supernatant was further diluted to lower the NaCl concentration to 200 mM and subsequently loaded, with a flow rate of 1 ml/min, on a 5 ml HiTrap® heparin column (Amersham-Pharmacia) connected to an FPLC® system (Amersham-Pharmacia). Bound proteins were eluted in 1 ml fractions, using a continuous NaCl gradient of 0.2 to 1 M, over a 25 ml volume. NS5B-containing fractions were identified by sodium dodecyl sulfate polyacrylamide gel electrophoresis (SDS-PAGE), followed by western blotting using the anti-NS5B antiserum at a dilution of 1:2000. Positive fractions were pooled and the elution buffer was exchanged against a 50 mM NaPO4 pH 7.0, 20% glycerol, 0.5% triton X-100 and 10 mM DTT, using a PD-10 column (Amersham-Pharmacia). The sample was then loaded onto a 1 ml HiTrap® SP column (Amersham-Pharmacia), with a flow rate of 0.1 ml/min. Bound proteins were eluted using a continuous 0 to 1 M NaCl gradient over a 15 ml volume. Eluted fractions were analyzed by SDS-PAGE and western blotting. Alternatively, proteins were visualized, following SDS-PAGE, by silver staining using the Silver Stain Plus kit (BioRad) as described by the manufacturer.
# RdRp assays were conducted using either homopolymeric template/primers or in vitro transcribed RNA templates. […]
# T1 sequence (P26663 2420-3010): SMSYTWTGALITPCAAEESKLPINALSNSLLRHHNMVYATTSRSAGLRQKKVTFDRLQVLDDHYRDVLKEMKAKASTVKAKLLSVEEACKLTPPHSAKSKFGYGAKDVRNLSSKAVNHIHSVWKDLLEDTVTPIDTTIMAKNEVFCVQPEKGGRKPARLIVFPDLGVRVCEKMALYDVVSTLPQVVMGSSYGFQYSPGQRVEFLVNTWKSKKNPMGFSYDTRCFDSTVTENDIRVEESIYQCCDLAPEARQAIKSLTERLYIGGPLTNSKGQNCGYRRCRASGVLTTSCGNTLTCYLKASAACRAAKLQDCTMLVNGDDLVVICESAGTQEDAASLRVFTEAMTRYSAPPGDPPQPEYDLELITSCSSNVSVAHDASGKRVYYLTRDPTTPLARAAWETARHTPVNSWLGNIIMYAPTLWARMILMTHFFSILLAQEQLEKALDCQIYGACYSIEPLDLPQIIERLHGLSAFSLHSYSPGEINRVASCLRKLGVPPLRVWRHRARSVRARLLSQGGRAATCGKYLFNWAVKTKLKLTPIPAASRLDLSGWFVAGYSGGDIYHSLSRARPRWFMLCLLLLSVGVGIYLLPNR
smiles,measurement,setting,value
"Nc1nc2c(ncn2[C@H]2CO[C@@H](COP(=O)(O)OP(=O)(O)OP(=O)(O)O)O2)c(=O)[nH]1 (single isomer, unassigned) [13(-) triphosphate, (−)-triphosphate-cis-2-hydroxymethyl-4-(guanin-9′-yl)-1,3-dioxolane]",inhibition at 50 µM,[1],82%
same,IC50,[1],10 µM
"Nc1ccn([C@H]2CO[C@@H](COP(=O)(O)OP(=O)(O)OP(=O)(O)O)O2)c(=O)n1 (single isomer, unassigned) [COMPOUND#22(+), (+)-triphosphate-cis-2-hydroxymethyl-4-(cytosin-1′-yl)-1,3-dioxolane]",inhibition at 50 µM,[2],85%
same,IC50,[2],7.7 µM
"Nc1nc(=O)n([C@@H]2CO[C@H](COP(=O)(O)OP(=O)(O)OP(=O)(O)O)O2)cc1F (single isomer, unassigned) [COMPOUND#23(−), (−)-triphosphate-cis-2-hydroxymethyl-4-(5′-fluorocytosin-1′-yl)-1,3-dioxolane]",inhibition at 100 µM,[2],81%
same,IC50,[2],16 µM
"Nc1nc(NC2CC2)c2ncn([C@H]3CO[C@@H](COP(=O)(O)OP(=O)(O)OP(=O)(O)O)O3)c2n1 [9(-)-triphosphate, (−)-triphosphate-cis-2-hydroxymethyl-4-(2′-amino-6′-cyclopropylamino-purine-9′-yl)-1,3-dioxolane]",inhibition at 100 µM,[1]; @100 μM compound,44%
"Nc1ncnc2c1ncn2[C@H]1CO[C@@H](COP(=O)(O)OP(=O)(O)OP(=O)(O)O)O1 [14(-)-triphosphate, (−)-triphosphate-cis-2-hydroxymethyl-4-(adenin-9′-yl)-1,3-dioxolane]",inhibition at 50 µM,[1],6%
"Nc1ccn([C@@H]2CO[C@H](COP(=O)(O)OP(=O)(O)OP(=O)(O)O)O2)c(=O)n1 [COMPOUND#22(−), (−)-triphosphate-cis-2-hydroxymethyl-4-(cytosin-1′-yl)-1,3-dioxolane]",inhibition at 100 µM,[2],15%
"Nc1nc(=O)n([C@H]2CO[C@@H](COP(=O)(O)OP(=O)(O)OP(=O)(O)O)O2)cc1F [COMPOUND#23(+), (+)-triphosphate-cis-2-hydroxymethyl-4-(5′-fluorocytosin-1′-yl)-1,3-dioxolane]",inhibition at 100 µM,[2],57%
"Nc1ncn([C@H]2CO[C@@H](COP(=O)(O)OP(=O)(O)OP(=O)(O)O)O2)c(=O)n1 [COMPOUND#24(+), (+)-triphosphate-cis-2-hydroxymethyl-4-(5′-azacytosin-1′-yl)-1,3-dioxolane]",inhibition at 50 µM,[2],12%
"Nc1ncn([C@@H]2CO[C@H](COP(=O)(O)OP(=O)(O)OP(=O)(O)O)O2)c(=O)n1 [COMPOUND#24(−), (−)-triphosphate-cis-2-hydroxymethyl-4-(5′-azacytosin-1′-yl)-1,3-dioxolane]",inhibition at 100 µM,[2],8%
"Cc1cn([C@H]2CO[C@@H](COP(=O)(O)OP(=O)(O)OP(=O)(O)O)O2)c(=O)nc1N [COMPOUND#25(+), (+)-triphosphate-cis-2-hydroxymethyl-4-(5′-methylcytosin-1′-yl)-1,3-dioxolane]",inhibition at 50 µM,[2],9%
"Cc1cn([C@H]2CO[C@@H](COP(=O)(O)OP(=O)(O)OP(=O)(O)O)O2)c(=O)[nH]c1=O [COMPOUND#26(+), (+)-triphosphate-cis-2-hydroxymethyl-4-(N-1′-thiminyl)-1,3-dioxolane]",inhibition at 100 µM,[2],47%
